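Where inhibition never reached the appropriate level, the endpoint shown equals the highest concentration tested. Otherwise, values were interpolated linearly from a five-concentration, 48-hour dose response in 96-well plates. GI50 = concentration required for 50% inhibition of growth.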 Activity calls are given as the source filed them. No stated cut-off is given here; in the data, active = GI50 up to about 1.1 µM and inactive = higher.
Assays:
Assay in all cases: NCI anticancer screen, dose series, 48 h
786-0 = tested on: 786-0
A549 = tested on: A549
CAKI-1 = tested on: CAKI-1
CCRF-CEM = tested on: CCRF-CEM
COLO 205 = tested on: COLO 205
DLD-1 = tested on: DLD-1
DMS-273 = tested on: DMS-273
EKVX = tested on: EKVX
HCT-116 = tested on: HCT-116
HCT-15 = tested on: HCT-15
HL-60 = tested on: HL-60
HOP-18 = tested on: HOP-18
HOP-62 = tested on: HOP-62
HOP-92 = tested on: HOP-92
HT-29 = tested on: HT-29
IGROV-1 = tested on: IGROV-1
K562 = tested on: K562
KM-20L2 = tested on: KM-20L2
LOX IMVI = tested on: LOX IMVI
LXFL 529 = tested on: LXFL 529
M14 = tested on: M14
M19-MEL = tested on: M19-MEL
MOLT-4 = tested on: MOLT-4
NCI-H23 = tested on: NCI-H23
NCI-H460 = tested on: NCI-H460
NCI-H522 = tested on: NCI-H522
OVCAR-8 = tested on: OVCAR-8
RPMI-8226 = tested on: RPMI-8226
RXF 393 = tested on: RXF 393
SF-295 = tested on: SF-295
SF-539 = tested on: SF-539
SK-MEL-5 = tested on: SK-MEL-5
SK-OV-3 = tested on: SK-OV-3
SN12C = tested on: SN12C
SW-620 = tested on: SW-620
TK-10 = tested on: TK-10
U-251 = tested on: U-251
UACC-62 = tested on: UACC-62
UO-31 = tested on: UO-31
XF498 = tested on: XF498
DMS-114 = tested on: DMS-114
HCC 2998 = tested on: HCC 2998
KM12 = tested on: KM12
Malme-3M = tested on: Malme-3M
OVCAR-3 = tested on: OVCAR-3
OVCAR-4 = tested on: OVCAR-4
OVCAR-5 = tested on: OVCAR-5
SK-MEL-28 = tested on: SK-MEL-28
SK-MEL-2 = tested on: SK-MEL-2
SNB-19 = tested on: SNB-19
SNB-78 = tested on: SNB-78
SR = tested on: SR
A498 = tested on: A498
ACHN = tested on: ACHN
BT-549 = tested on: BT-549
DU-145 = tested on: DU-145
Hs-578T = tested on: Hs-578T
MCF7 = tested on: MCF7
MDA-MB-231 = tested on: MDA-MB-231
MDA-MB-435 = tested on: MDA-MB-435
MDA-N = tested on: MDA-N
NCI/ADR-RES = tested on: NCI/ADR-RES
PC-3 = tested on: PC-3
SF-268 = tested on: SF-268
SNB-75 = tested on: SNB-75
T47D = tested on: T47D

Cc1nc2ccccc2c(=O)n1/N=C(\N=N\c1cccc(Cl)c1)c1ccccc1Cl
GI50 (786-0): 83 µM (inactive)
GI50 (A549): > 100 µM (inactive)
GI50 (CAKI-1): > 100 µM (inactive)
GI50 (CCRF-CEM): > 10 µM (inactive)
GI50 (COLO 205): > 10 µM (inactive)
GI50 (DLD-1): 75.5 µM (inactive)
GI50 (DMS-273): 50.2 µM (inactive)
GI50 (EKVX): 69.8 µM (inactive)
GI50 (HCT-116): 36 µM (inactive)
GI50 (HCT-15): > 100 µM
GI50 (HL-60): > 10 µM (inactive)
GI50 (HOP-18): 1.48 µM (inactive)
GI50 (HOP-62): 37.8 µM (inactive)
GI50 (HOP-92): 29.9 µM (inactive)
GI50 (HT-29): > 100 µM (inactive)
GI50 (IGROV-1): > 10 µM (inactive)
GI50 (K562): 0.57 µM (active)
GI50 (KM-20L2): > 100 µM (inactive)
GI50 (LOX IMVI): > 100 µM (inactive)
GI50 (LXFL 529): > 10 µM (inactive)
GI50 (M14): > 100 µM (inactive)
GI50 (M19-MEL): > 100 µM (inactive)
GI50 (MOLT-4): > 10 µM (inactive)
GI50 (NCI-H23): 64.9 µM (inactive)
GI50 (NCI-H460): 49.9 µM (inactive)
GI50 (NCI-H522): 29 µM (inactive)
GI50 (OVCAR-8): > 100 µM (inactive)
GI50 (RPMI-8226): > 100 µM (inactive)
GI50 (RXF 393): 21.7 µM (inactive)
GI50 (SF-295): 30.4 µM (inactive)
GI50 (SF-539): 25.3 µM (inactive)
GI50 (SK-MEL-5): > 100 µM (inactive)
GI50 (SK-OV-3): 25.8 µM (inactive)
GI50 (SN12C): > 100 µM (inactive)
GI50 (SW-620): > 100 µM (inactive)
GI50 (TK-10): 49.4 µM (inactive)
GI50 (U-251): 37.9 µM (inactive)
GI50 (UACC-62): > 100 µM (inactive)
GI50 (UO-31): 99.3 µM (inactive)
GI50 (XF498): 2.29 µM (inactive)

COC(=O)C12C(=O)O[C@H](C)C1(O)C(C)C(=O)N2C (stereo not given in full)
GI50 (786-0): > 100 µM (inactive)
GI50 (CAKI-1): > 100 µM (inactive)
GI50 (COLO 205): > 100 µM (inactive)
GI50 (DLD-1): > 100 µM (inactive)
GI50 (DMS-114): > 100 µM (inactive)
GI50 (EKVX): > 100 µM (inactive)
GI50 (HCC 2998): > 100 µM (inactive)
GI50 (HCT-116): > 100 µM (inactive)
GI50 (HCT-15): > 100 µM
GI50 (HOP-18): > 100 µM (inactive)
GI50 (HOP-62): > 100 µM (inactive)
GI50 (HOP-92): < 0.01 µM (active)
GI50 (HT-29): > 100 µM (inactive)
GI50 (IGROV-1): > 100 µM (inactive)
GI50 (K562): > 100 µM (inactive)
GI50 (KM12): > 100 µM (inactive)
GI50 (M14): > 100 µM (inactive)
GI50 (M19-MEL): > 100 µM (inactive)
GI50 (MOLT-4): > 100 µM (inactive)
GI50 (Malme-3M): > 100 µM (inactive)
GI50 (NCI-H23): > 100 µM (inactive)
GI50 (OVCAR-3): > 100 µM (inactive)
GI50 (OVCAR-4): > 100 µM (inactive)
GI50 (OVCAR-5): > 100 µM (inactive)
GI50 (OVCAR-8): > 100 µM (inactive)
GI50 (RPMI-8226): > 100 µM (inactive)
GI50 (RXF 393): > 100 µM (inactive)
GI50 (SF-295): > 100 µM (inactive)
GI50 (SF-539): > 100 µM (inactive)
GI50 (SK-MEL-28): > 100 µM (inactive)
GI50 (SK-MEL-2): > 100 µM (inactive)
GI50 (SK-MEL-5): > 100 µM (inactive)
GI50 (SK-OV-3): > 100 µM (inactive)
GI50 (SNB-19): > 100 µM (inactive)
GI50 (SNB-78): > 100 µM (inactive)
GI50 (SR): > 100 µM (inactive)
GI50 (TK-10): > 100 µM (inactive)
GI50 (U-251): > 100 µM (inactive)
GI50 (UACC-62): > 100 µM (inactive)
GI50 (UO-31): > 100 µM (inactive)
GI50 (XF498): 0.662 µM (active)

C=Cc1cc(OC)c2c(c1)c(=O)oc1c2cc(OC)c2c(O)ccc(C3OC(C)C(O)C(C)(O)C3O)c21 (stereo not given)
GI50 (786-0): 0.000348 µM (active)
GI50 (A498): 0.0444 µM (active)
GI50 (A549): 0.0328 µM (active)
GI50 (ACHN): 0.000409 µM (active)
GI50 (BT-549): 0.00183 µM (active)
GI50 (CAKI-1): 0.0462 µM (active)
GI50 (CCRF-CEM): 0.0225 µM (active)
GI50 (DLD-1): 0.0671 µM (active)
GI50 (DMS-114): 0.0225 µM (active)
GI50 (DMS-273): 0.0545 µM (active)
GI50 (DU-145): 0.000296 µM (active)
GI50 (EKVX): 0.0398 µM (active)
GI50 (HCC 2998): 0.0493 µM (active)
GI50 (HCT-116): 0.0235 µM (active)
GI50 (HCT-15): 0.0489 µM
GI50 (HL-60): 0.0225 µM (active)
GI50 (HOP-18): 0.053 µM (active)
GI50 (HOP-62): 0.0225 µM (active)
GI50 (HOP-92): 0.041 µM (active)
GI50 (HT-29): 0.0341 µM (active)
GI50 (Hs-578T): 0.00295 µM (active)
GI50 (IGROV-1): 0.0403 µM (active)
GI50 (K562): 0.0306 µM (active)
GI50 (KM-20L2): 0.041 µM (active)
GI50 (LOX IMVI): 0.0225 µM (active)
GI50 (M14): 0.000382 µM (active)
GI50 (M19-MEL): 0.0614 µM (active)
GI50 (MCF7): 0.0225 µM (active)
GI50 (MDA-MB-231): 0.00345 µM (active)
GI50 (MDA-MB-435): 0.00163 µM (active)
GI50 (MDA-N): 0.00171 µM (active)
GI50 (MOLT-4): 0.0225 µM (active)
GI50 (Malme-3M): 0.0764 µM (active)
GI50 (NCI-H23): 0.0237 µM (active)
GI50 (NCI-H460): 0.0225 µM (active)
GI50 (NCI/ADR-RES): 0.0344 µM (active)
GI50 (OVCAR-3): 0.0548 µM (active)
GI50 (OVCAR-4): 0.0271 µM (active)
GI50 (OVCAR-5): 0.0397 µM (active)
GI50 (OVCAR-8): 0.025 µM (active)
GI50 (PC-3): 0.000638 µM (active)
GI50 (RPMI-8226): 0.0294 µM (active)
GI50 (RXF 393): 0.0225 µM (active)
GI50 (SF-268): 0.0237 µM (active)
GI50 (SF-295): 0.0313 µM (active)
GI50 (SF-539): 0.0295 µM (active)
GI50 (SK-MEL-2): 0.0294 µM (active)
GI50 (SK-OV-3): 0.0445 µM (active)
GI50 (SN12C): 0.0303 µM (active)
GI50 (SNB-19): 0.0372 µM (active)
GI50 (SNB-75): 0.0302 µM (active)
GI50 (SR): 3.07e-06 µM (active)
GI50 (SW-620): 0.0225 µM (active)
GI50 (T47D): 0.00147 µM (active)
GI50 (TK-10): 0.00249 µM (active)
GI50 (U-251): 0.0296 µM (active)
GI50 (UACC-62): 0.0317 µM (active)
GI50 (UO-31): 0.0454 µM (active)
GI50 (XF498): 0.0252 µM (active)
